Patent US5693324A, “Tris(isonitrile) copper(I) sulfates for preparing radionuclide complexes” (The DuPont Merck Pharmaceutical Company, priority 1995, dated 1997)

Assay: water solubility of tris(isonitrile)copper(I) complexes
Format: physicochemical

water solubility, relative (compared with the tris(isonitrile)copper(I) adducts of U.S. Pat. No. 4,885,100): more soluble
water solubility (sulfate complexes of the present invention, in water): > 100 mg/mL
SMILES: O=S(=O)([O-])[O-].[C-]#[N+]CC(C)(C)OC.[C-]#[N+]CC(C)(C)OC.[C-]#[N+]CC(C)(C)OC.[C-]#[N+]CC(C)(C)OC.[C-]#[N+]CC(C)(C)OC.[C-]#[N+]CC(C)(C)OC.[Cu+].[Cu+] [[Cu(MIBI)3]2 [SO4], tris(1-isocyano-2-methoxy-2-methylpropane)copper(I) sulfate]
